This is an account of results in ChEMBL document CHEMBL1130110 (J Med Chem, 1997).

Assay [1] concerns the target T1, Glucagon receptor (Rattus norvegicus, UniProt P30082). In words: (§1) Binding affinity towards Glucagon receptor in rat liver plasma membranes by displacement of 125 I-labelled glucagon. The format is cell membranes, Plasma Membrane.
In assay [2] the target is T1, Glucagon receptor. In words: pA2 value against Glucagon Receptor. The settings on record: read-out: pA2 (converted).
The target of assay [3] is T1, Glucagon receptor. The assay is described as §1. The format is cell membranes.
The target in assay [4] is T1, Glucagon receptor. The assay can be described thus: Effective concentration was determined in cAMP accumulation assay using isolated hepatocytes in the presence rolipram. The assay is classed as functional, cell-based. The settings on record: hepatocyte. For orientation: cAMP levels reflect the balance of adenylyl cyclase and phosphodiesterase activity.

T1 sequence (P30082 whole entry): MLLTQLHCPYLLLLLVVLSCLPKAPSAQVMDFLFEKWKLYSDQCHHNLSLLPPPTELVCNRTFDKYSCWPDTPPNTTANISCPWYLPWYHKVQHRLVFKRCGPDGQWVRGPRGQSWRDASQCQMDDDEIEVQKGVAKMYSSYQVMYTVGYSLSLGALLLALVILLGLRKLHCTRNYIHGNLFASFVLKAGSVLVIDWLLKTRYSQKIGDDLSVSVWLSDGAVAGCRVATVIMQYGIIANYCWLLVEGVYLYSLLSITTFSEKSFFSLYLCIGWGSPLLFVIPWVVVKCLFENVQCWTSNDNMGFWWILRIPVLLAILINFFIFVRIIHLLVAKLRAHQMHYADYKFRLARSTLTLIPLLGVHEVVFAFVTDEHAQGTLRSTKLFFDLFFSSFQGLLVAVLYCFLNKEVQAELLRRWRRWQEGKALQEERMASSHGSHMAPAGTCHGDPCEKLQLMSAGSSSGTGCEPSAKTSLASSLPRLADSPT

With `CSCC[C@H](NC(=O)[C@H](CC(C)C)NC(=O)[C@H](Cc1c[nH]c2ccccc12)NC(=O)[C@H](CCC(N)=O)NC(=O)[C@@H](NC(=O)[C@H](Cc1ccccc1)NC(=O)[C@H](CC(=O)O)NC(=O)[C@H](CCC(N)=O)NC(=O)[C@H](C)NC(=O)[C@H](CCCNC(=N)N)NC(=O)[C@H](CCCNC(=N)N)NC(=O)[C@H](CO)NC(=O)[C@H](CC(=O)O)NC(=O)[C@H](CC(C)C)NC(=O)[C@H](Cc1ccc(O)cc1)NC(=O)[C@H](CCCCN)NC(=O)[C@H](CO)NC(=O)[C@H](Cc1ccc(O)cc1)NC(=O)[C@H](CCC(=O)O)NC(=O)[C@H](CO)NC(=O)[C@@H](NC(=O)[C@H](C)NC(=O)[C@@H](NC(=O)CNC(=O)[C@H](CCC(N)=O)NC(=O)[C@@H](N)CO)[C@@H](C)O)[C@@H](C)O)C(C)C)C(=O)N[C@@H](CC(N)=O)C(=O)N[C@H](C(N)=O)[C@@H](C)O`, the IC50 – broadly, the concentration that inhibits the measured activity by half – at Glucagon receptor [1] was found to be 126 nM. The Kb on Glucagon receptor [2] is 398 nM.

On Glucagon receptor [3], `CSCC[C@H](NC(=O)[C@H](CC(C)C)NC(=O)[C@H](Cc1c[nH]c2ccccc12)NC(=O)[C@H](CCC(N)=O)NC(=O)[C@@H](NC(=O)[C@H](Cc1ccccc1)NC(=O)[C@H](CC(=O)O)NC(=O)[C@H](CCC(N)=O)NC(=O)[C@H](C)NC(=O)[C@H](CCCN=C(N)N)NC(=O)[C@H](CCCN=C(N)N)NC(=O)[C@H](CO)NC(=O)[C@H](CC(=O)O)NC(=O)[C@H](CC(C)C)NC(=O)[C@H](Cc1ccc(O)cc1)NC(=O)[C@H](CCCCN)NC(=O)[C@H](CO)NC(=O)[C@H](Cc1ccc(O)cc1)NC(=O)[C@H](CCC(=O)O)NC(=O)[C@H](CO)NC(=O)[C@@H](NC(=O)[C@H](Cc1c[nH]c2ccccc12)NC(=O)[C@@H](NC(=O)CNC(=O)[C@H](CCC(N)=O)NC(=O)[C@@H](N)CO)[C@@H](C)O)[C@@H](C)O)C(C)C)C(=O)N[C@@H](CC(N)=O)C(=O)N[C@H](C(N)=O)[C@@H](C)O` returned an IC50 of 19 nM. The EC50 entry at Glucagon receptor [4] was “Not Active”. Moreover, the Kb on Glucagon receptor [2] is 562 nM.

`CSCC[C@H](NC(=O)[C@H](CC(C)C)NC(=O)[C@H](Cc1c[nH]c2ccccc12)NC(=O)[C@H](CCC(N)=O)NC(=O)[C@@H](NC(=O)[C@H](Cc1ccccc1)NC(=O)[C@H](CC(=O)O)NC(=O)[C@H](CCC(N)=O)NC(=O)[C@H](C)NC(=O)[C@H](CCCN=C(N)N)NC(=O)[C@H](CCCN=C(N)N)NC(=O)[C@H](CO)NC(=O)[C@H](CC(=O)O)NC(=O)[C@H](CC(C)C)NC(=O)[C@H](Cc1ccc(O)cc1)NC(=O)[C@H](CCCCN)NC(=O)[C@H](CO)NC(=O)[C@H](Cc1ccc(O)cc1)NC(=O)[C@H](CCC(=O)O)NC(=O)[C@H](CO)NC(=O)[C@@H](NC(=O)[C@H](Cc1ccc(O)cc1)NC(=O)[C@@H](NC(=O)CNC(=O)[C@H](CCC(N)=O)NC(=O)[C@@H](N)CO)[C@@H](C)O)[C@@H](C)O)C(C)C)C(=O)N[C@@H](CC(N)=O)C(=O)N[C@H](C(N)=O)[C@@H](C)O` gave an IC50 at Glucagon receptor [3] of 40 nM. The EC50 entry on Glucagon receptor [4] is on record as “Not Active”. Further, the Kb at Glucagon receptor [2] is 631 nM.

At Glucagon receptor [3], `CSCC[C@H](NC(=O)[C@H](CC(C)C)NC(=O)[C@H](Cc1c[nH]c2ccccc12)NC(=O)[C@H](CCC(N)=O)NC(=O)[C@@H](NC(=O)[C@H](Cc1ccccc1)NC(=O)[C@H](CC(=O)O)NC(=O)[C@H](CCC(N)=O)NC(=O)[C@H](C)NC(=O)[C@H](CCCN=C(N)N)NC(=O)[C@H](CCCN=C(N)N)NC(=O)[C@H](CO)NC(=O)[C@H](CC(=O)O)NC(=O)[C@H](CC(C)C)NC(=O)[C@H](Cc1ccc(O)cc1)NC(=O)[C@H](CCCCN)NC(=O)[C@H](CO)NC(=O)[C@H](Cc1ccc(O)cc1)NC(=O)[C@H](CC(=O)O)NC(=O)[C@H](CO)NC(=O)[C@@H](NC(=O)[C@@H](NC(=O)CNC(=O)[C@H](CCC(N)=O)NC(=O)[C@@H](N)CO)[C@@H](C)O)[C@@H](C)O)C(C)C)C(=O)N[C@@H](CC(N)=O)C(=O)N[C@H](C(N)=O)[C@@H](C)O` showed an IC50 of 128 nM. In addition, the EC50 entry at Glucagon receptor [4] is “Not Active”. In addition, the Kb at Glucagon receptor [2] is 562 nM.

For the molecule `CSCC[C@H](NC(=O)[C@H](CC(C)C)NC(=O)[C@H](Cc1c[nH]c2ccccc12)NC(=O)[C@H](CCC(N)=O)NC(=O)[C@@H](NC(=O)[C@H](Cc1ccccc1)NC(=O)[C@H](CC(=O)O)NC(=O)[C@H](CCC(N)=O)NC(=O)[C@H](C)NC(=O)[C@H](CCCN=C(N)N)NC(=O)[C@H](CCCN=C(N)N)NC(=O)[C@H](CO)NC(=O)[C@H](CC(=O)O)NC(=O)[C@H](CC(C)C)NC(=O)[C@H](Cc1ccc(O)cc1)NC(=O)[C@H](CCCCN)NC(=O)[C@H](CO)NC(=O)[C@H](Cc1ccc(O)cc1)NC(=O)[C@H](CC(=O)O)NC(=O)[C@H](CO)NC(=O)[C@@H](NC(=O)[C@@H](NC(=O)CNC(=O)[C@H](CCC(N)=O)NC(=O)[C@H](CO)NC(=O)[C@@H](N)Cc1c[nH]cn1)[C@@H](C)O)[C@@H](C)O)C(C)C)C(=O)N[C@@H](CC(N)=O)C(=O)N[C@H](C(N)=O)[C@@H](C)O`, the IC50 at Glucagon receptor [3] turned out to be 512 nM. Further, at Glucagon receptor [4], the EC50 entry is listed as “Not Active”. The Kb on Glucagon receptor [2] is 501 nM.
